This note sets out measurements from publication PMC3171563 (2011).

For assay [1], the target named is acetylpolyamine amidohydrolase (APAH) (Mycoplana ramosa, UniProt Q48935). The experiment in a line: Fluor-de-Lys fluorescence deacetylase assay. The assay is classed as biochemical.
Assay [2] concerns the target T1, histone deacetylase 8 (HDAC8) (Homo sapiens, UniProt Q9BY41).
T1 sequence (Q9BY41 1-377): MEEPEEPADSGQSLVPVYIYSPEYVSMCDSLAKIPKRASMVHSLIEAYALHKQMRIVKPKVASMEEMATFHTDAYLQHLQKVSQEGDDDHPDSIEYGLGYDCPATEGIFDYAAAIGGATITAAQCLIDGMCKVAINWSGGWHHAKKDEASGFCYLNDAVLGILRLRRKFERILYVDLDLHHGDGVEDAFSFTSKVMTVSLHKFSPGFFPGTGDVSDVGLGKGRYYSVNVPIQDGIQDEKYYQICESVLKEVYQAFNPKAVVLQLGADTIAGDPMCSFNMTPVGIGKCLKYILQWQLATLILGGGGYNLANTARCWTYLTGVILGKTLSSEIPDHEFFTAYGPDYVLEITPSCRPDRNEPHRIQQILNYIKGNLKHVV
Description: Fluor-de-Lys fluorescence deacetylase assay. The assay is classed as biochemical.

acetylpolyamine amidohydrolase (APAH), sequence (Q48935 whole entry): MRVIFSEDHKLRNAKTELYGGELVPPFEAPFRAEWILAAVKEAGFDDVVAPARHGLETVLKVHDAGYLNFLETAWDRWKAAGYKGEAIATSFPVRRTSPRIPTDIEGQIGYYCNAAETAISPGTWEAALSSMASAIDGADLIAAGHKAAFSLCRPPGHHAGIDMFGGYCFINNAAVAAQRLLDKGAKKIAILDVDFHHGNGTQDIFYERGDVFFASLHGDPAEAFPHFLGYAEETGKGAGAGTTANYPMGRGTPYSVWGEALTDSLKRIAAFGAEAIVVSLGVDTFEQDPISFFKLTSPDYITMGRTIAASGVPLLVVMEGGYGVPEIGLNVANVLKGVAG

The IC50 is the concentration that inhibits the measured activity by half. Take `N[C@@H](CCCCC(=O)C(F)(F)F)C(=O)O` [compound 10, (S)-2-amino-8,8,8-trifluoro-7-oxo-octanoic acid]: the 50% inhibitory concentration (IC50) in assay [1] came to 110 ± 30 µM; in assay [2], 1.5 ± 0.2 µM.
